How the values were obtained:
LTA4-hydrolase = molecular target: T1, LTA4-hydrolase (Rattus norvegicus, UniProt P30349); assay: Inhibition of LTA4 hydrolase activity (LTB4 formation by radioimmunoassay); assay type: biochemical; settings: crude fraction from rat lung, 1 minute at 37° C.
T1 construct: was prepared as a crude fraction from rat lung tissue; from tissue; host or cells: rat lung tissue, crude fraction
T1 sequence (P30349 1-611): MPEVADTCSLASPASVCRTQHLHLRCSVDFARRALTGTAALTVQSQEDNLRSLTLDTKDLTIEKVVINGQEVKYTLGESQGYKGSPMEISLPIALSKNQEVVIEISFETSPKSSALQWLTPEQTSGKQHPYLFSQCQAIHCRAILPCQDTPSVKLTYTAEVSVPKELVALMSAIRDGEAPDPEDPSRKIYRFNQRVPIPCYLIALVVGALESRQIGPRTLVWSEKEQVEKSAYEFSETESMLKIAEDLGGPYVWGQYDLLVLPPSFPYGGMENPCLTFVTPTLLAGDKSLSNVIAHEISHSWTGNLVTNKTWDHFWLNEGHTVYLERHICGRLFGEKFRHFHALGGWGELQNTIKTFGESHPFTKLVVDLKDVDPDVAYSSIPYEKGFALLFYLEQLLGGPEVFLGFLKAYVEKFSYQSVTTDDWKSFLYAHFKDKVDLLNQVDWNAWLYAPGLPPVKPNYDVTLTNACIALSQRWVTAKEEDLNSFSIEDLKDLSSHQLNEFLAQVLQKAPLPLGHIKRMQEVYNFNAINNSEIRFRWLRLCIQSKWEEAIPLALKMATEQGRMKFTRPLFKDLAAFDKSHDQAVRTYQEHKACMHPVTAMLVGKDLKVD
Procedure: LTA4 -hydoiase was prepared as a crude fraction from rat lung tissue. The sodium salt of LTA4 was incubated with the enzyme and test compounds at 10 μM for 1 minute at 37° C. The reaction was terminated by the addition of ice-cold methanol. Formation of LTB4 was assessed by radioimmunoassay. Results are expressed as a percentage inhibition of LTA4 hydrolase activity.

male Lewis rats = assay: Rat Adjuvant Arthritis Model; assay type: in vivo; settings: Day 10 to Day 21, vs vehicle, P<0.05
Procedure: Rat Adjuvant Arthritis Model
Adjuvant arthritis was induced in male Lewis rats on Day 0, using a suspension of mycobacterium butyncum in mineral oil, inoculated subcutaneously, into the base of the tail. The volume of the hind paws was measured regularly to assess the time course of disease progression. […] Nine animals were allocated to each group. Animals received their first treatment on Day 10, either vehicle (2% DMSO in PBSiTween (0.01%v/v)) or test compound, formulated as a suspension in the vehicle. Treatment was administered as an intraperitoneal bolus injection, once daily, for the duration of the study. The study was ended on Day 21. The percent increase in mean paw volume from Day 10 to Day 21 was calculated for each animal and the compound treated groups compared to the vehicle treated control group.

[1] = tested on: Leukotriene Synthesis by Rat Basophilic Leukaemia Cells; assay: Inhibition of Leukotriene Synthesis by Rat Basophilic Leukaemia Cells (RBL-1, A23187 stimulated, LTB4); assay type: cell-based; settings: RBL-1 cells, 4.75 hours preincubation, 10 μM A23187, 15 minutes at 37° C., value estimated, read-out: IC50 (leukotriene B4 synthesis)
Procedure: Inhibition of Leukotriene Synthesis by Rat Basophilic Leukaemia Cells
The rat basophilic leukaemia cell line RBL-1 was obtained from ATCC or ECACC and cultured in Dulbecco's modified Eagle's medium (DMEM) supplemented with 10% foetal bovine serum, non-essential amino acids, sodium pyruvate, penicillin, streptomycin and 2mM glutamine, at 37° C. in an atmosphere of 5% CO2 in air, as recommended by the culture collection.
RBL-1 cells were harvested during log growth, washed and resuspended in Hanks Balanced Salt Solution, without calcium chloride and magnesium chloride, supplemented with 10% foetal bovine serum and penicillin, streptomycin, and 2mM glutamine and adjusted to a final cell concentration of 1.25×10^5 cells/ml. Cells incubated in the presence of the appropriate concentration of inhibitor or vehicle for 4.75 hours at 37° C. Cells then transferred to ice for 15 minutes. Cells washed by centrifugation and resuspension in prechilled Phosphate Buffered Saline, with calcium chloride and magnesium chloride, supplemented with the appropriate concentration of test sample. […]
Treated cells then exposed to 10 μM A23187 for 15 minutes at 37° C. […] The levels of leukotriene B4 then determined in the cell free supernatant using the Leukotriene B4 [^3 H] assay system from Amersham Pharmacia Biotech.

cells = settings: cited from earlier work
LTA4 hydrolase = settings: isolated enzyme; T. D. Penning et al, 1995; cited from earlier work

| SMILES | inhibition at 10 µM (LTA4-hydrolase) | inhibition of paw swelling (male Lewis rats; 30mg/kg i.p. once daily) | inhibition of paw swelling (male Lewis rats; 100mg/kg i.p. once daily) | IC50 [1] | ability to penetrate cells (cells) | LTA4 hydrolase inhibitory activity (LTA4 hydrolase) |
| --- | --- | --- | --- | --- | --- | --- |
| C=CC[C@H](C(=O)NO)[C@@H](CC(C)C)C(=O)N[C@@H](Cc1ccccc1)C(=O)OC1CCCC1 [Example 19, 2S-(3S-Hydroxycarbamoyl-2R-isobutyl-hex-5-enoylamin)-3-phenylpropionic acid cyclopentyl ester] | 78% | 60% | 77% | 2 nM |  |  |
| C=CC[C@H](C(=O)NO)[C@@H](CC(C)C)C(=O)N[C@H](C(=O)OC1CCCC1)c1ccccc1 [Example 40, 2S-(3S-Hydroxycarbamoyl-2R-isobutyl-hex-5-enoylamino)-2-phenylethanoic acid cyclopentyl ester] | 75% |  |  |  |  |  |
| CC(C)C[C@H](NC(=O)[C@@H](O)[C@H](N)Cc1ccccc1)C(=O)O [bestatin] |  |  |  |  | unable to effectively penetrate cells | exhibit LTA4 hydrolase inhibitory activity against isolated enzyme |
| C[C@H](CS)C(=O)N1CCC[C@H]1C(=O)O [captopril] |  |  |  |  | unable to effectively penetrate cells | exhibit LTA4 hydrolase inhibitory activity against isolated enzyme |
| C[C@H](NC(=O)[C@@H](CC(=O)NO)Cc1ccccc1)C(=O)O [kelatorphan] | 80% |  |  | 350 nM | unable to effectively penetrate cells | exhibit LTA4 hydrolase inhibitory activity against isolated enzyme |

— US6306881A, “Anti-inflammatory agents” (British Biotech Pharmaceuticals, priority 1998, dated 2001)
